Reference: article PMC8462848, “Quinazolin-4(3H)-one based potential multiple tyrosine kinase inhibitors with excellent cytotoxicity” (Journal of Enzyme Inhibition and Medicinal Chemistry, 2021)

Key:
[1] = system: MCF7 (human breast adenocarcinoma) cells; test: MTT cytotoxicity assay, MCF7; format: cell-based; conditions: Homo sapiens, MCF7, mean ± SD of triplicate
Method: (§1) The cytotoxicity of the synthesised quinazolin-4(3H)-ones was evaluated by MTT assay, as previously described. Two cancer cell lines, MCF7 (human breast adenocarcinoma) and A2780 (human ovary adenocarcinoma), were used in this study, which were obtained from the ATCC (Rockville, MD, USA). […] Additionally, compounds were prepared at the same medium to obtain serial dilutions (50, 25, […] and 0.1 µM). […] The media were aspirated, and the formazan crystals were solubilised by adding 150 µL DMSO. Absorbance was read on a multi-plate reader (BioRad) at […]. […] The data were obtained from triplicates and analysed using statistical software.

[2] = system: A2780 (human ovary adenocarcinoma) cells; test: MTT cytotoxicity assay, A2780; format: cell-based; conditions: Homo sapiens, A2780, mean ± SD of triplicate
Method: as §1

CDK2/CyclinA2 [3] = target: T1, CDK2/CyclinA2 (Homo sapiens, UniProt P24941); test: CDK2 Assay Kit, Kinase-Glo MAX luminescence; format: biochemical; conditions: one experimental data
T1 construct: purchased #79599
Method: The CDK2 Assay Kit is designed to measure CDK2/CyclinA2 activity for screening and profiling applications, using Kinase-Glo® MAX as a detection reagent. The CDK2 Assay Kit comes in a convenient 96-well format, with enough purified recombinant CDK2/CyclinA2 enzyme, CDK substrate peptide, ATP and kinase assay buffer for 100 enzyme reactions. […] […] The compounds were diluted in 10% DMSO and 5 μl of the dilution was added to a 50 μl reaction so that the final concentration of DMSO was 1% in all of the reactions. All of the enzymatic reactions were conducted at 30 °C for 40 min. The 50 μl reaction mixture contained 40 mM Tris, pH 7.4, 10 mM MgCl2, 0.1 mg/mL BSA, 1 mM DTT, 10 mM ATP, Kinase substrate and the enzyme (CDK2/CyclinA2). After the enzymatic reaction, 50 μl of Kinase-Glo® MAX Luminescence kinase assay solution was added to each reaction and the plates were incubated for 5 min at room temperature. Luminescence signal was measured using a Bio Tek Synergy 2 microplate reader.
Figure S1. Calculation of the IC20 Values of Protein Kinase Enzyme CDK2 for 2f
* All the kinase IC20 (µM) were calculated according to the above equations.
(1 picture or pasted object on this page, not shown here)

HER2 = target: T2, HER2 (Homo sapiens, UniProt P04626); test: HER2 kinase assay kit, Kinase-Glo MAX luminescence; format: biochemical; conditions: for inhibition at 0.01 µM / inhibition at 0.1 µM / inhibition at 1 µM / inhibition at 10 µM: one experimental data; for IC50: mean ± SD of triplicate
T2 construct: purchased #40721
T2 sequence (P04626 23-1255): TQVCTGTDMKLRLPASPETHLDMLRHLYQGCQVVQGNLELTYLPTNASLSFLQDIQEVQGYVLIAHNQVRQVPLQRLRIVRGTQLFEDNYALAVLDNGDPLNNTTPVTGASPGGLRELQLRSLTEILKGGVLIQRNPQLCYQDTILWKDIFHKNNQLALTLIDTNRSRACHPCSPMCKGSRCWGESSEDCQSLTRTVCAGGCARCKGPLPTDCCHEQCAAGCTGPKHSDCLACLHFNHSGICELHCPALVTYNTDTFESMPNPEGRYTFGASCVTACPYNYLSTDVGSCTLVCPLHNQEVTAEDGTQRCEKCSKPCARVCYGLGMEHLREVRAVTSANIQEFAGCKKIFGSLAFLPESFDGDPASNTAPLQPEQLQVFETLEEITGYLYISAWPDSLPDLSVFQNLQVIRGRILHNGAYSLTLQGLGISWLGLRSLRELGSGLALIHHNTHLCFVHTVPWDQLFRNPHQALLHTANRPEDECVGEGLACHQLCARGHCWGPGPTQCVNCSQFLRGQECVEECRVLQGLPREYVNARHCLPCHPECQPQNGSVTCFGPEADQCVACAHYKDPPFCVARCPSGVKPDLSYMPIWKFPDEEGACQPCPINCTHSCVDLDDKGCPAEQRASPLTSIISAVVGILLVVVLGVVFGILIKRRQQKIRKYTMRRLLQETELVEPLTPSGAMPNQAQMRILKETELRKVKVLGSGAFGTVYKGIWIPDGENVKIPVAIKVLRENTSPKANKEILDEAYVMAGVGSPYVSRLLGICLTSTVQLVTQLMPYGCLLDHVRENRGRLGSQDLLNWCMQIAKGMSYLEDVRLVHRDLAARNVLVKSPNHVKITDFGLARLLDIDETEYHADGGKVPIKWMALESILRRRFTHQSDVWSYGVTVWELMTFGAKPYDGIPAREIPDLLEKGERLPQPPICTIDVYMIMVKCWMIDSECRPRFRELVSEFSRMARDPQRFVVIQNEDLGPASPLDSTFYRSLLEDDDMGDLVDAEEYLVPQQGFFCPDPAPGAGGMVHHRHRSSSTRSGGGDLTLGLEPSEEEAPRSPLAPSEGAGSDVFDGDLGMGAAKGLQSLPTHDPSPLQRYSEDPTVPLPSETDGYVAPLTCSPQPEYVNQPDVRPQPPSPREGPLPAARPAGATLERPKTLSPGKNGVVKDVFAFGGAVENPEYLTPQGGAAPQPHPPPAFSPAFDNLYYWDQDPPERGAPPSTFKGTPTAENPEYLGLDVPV
Method: (§2) The HER2/EGFR/VEGFR2 assay kit is designed to measure HER2/EGFR/VEGFR-2 inhibitory activity for screening and profiling applications, using Kinase-Glo® MAX as a detection reagent. The HER2/EGFR/VEGFR2 assay kit comes in a convenient 96-well format, with enough purified recombinant HER2/EGFR/VEGFR2 enzyme, HER2/EGFR/VEGFR2 substrate, ATP and kinase buffer 1 for 100 enzyme reactions. […] […] The quinazolin-4(3H)-ones were diluted in 10% DMSO and 5 μl of the dilution was added to a 50 μl reaction so that the final concentration of DMSO was 1% in all of the reactions. All of the enzymatic reactions were conducted at 30 °C for 40 min. The 50 μl reaction mixture contained 40 mM Tris, pH 7.4, 10 mM MgCl2, 0.1 mg/mL BSA, 1 mM DTT, 10 mM ATP, kinase substrate and the enzyme HER2 / EGFR / VEGFR2. After the enzymatic reaction, 50 μl of Kinase-Glo® MAX luminescence kinase assay solution was added to each reaction and the plates were incubated for 5 min at room temperature. Luminescence signal was measured using a Bio Tek Synergy 2 microplate reader (For detail enzyme assay protocol and the results, please see supplementary data).

EGFR = target: T3, EGFR (Homo sapiens, UniProt P00533); test: EGFR kinase assay kit, Kinase-Glo MAX luminescence; format: biochemical; conditions: for inhibition at 0.01 µM / inhibition at 0.1 µM / inhibition at 1 µM / inhibition at 10 µM: one experimental data; for IC50: mean ± SD of triplicate
T3 construct: purchased #40321
T3 sequence (P00533 25-1210): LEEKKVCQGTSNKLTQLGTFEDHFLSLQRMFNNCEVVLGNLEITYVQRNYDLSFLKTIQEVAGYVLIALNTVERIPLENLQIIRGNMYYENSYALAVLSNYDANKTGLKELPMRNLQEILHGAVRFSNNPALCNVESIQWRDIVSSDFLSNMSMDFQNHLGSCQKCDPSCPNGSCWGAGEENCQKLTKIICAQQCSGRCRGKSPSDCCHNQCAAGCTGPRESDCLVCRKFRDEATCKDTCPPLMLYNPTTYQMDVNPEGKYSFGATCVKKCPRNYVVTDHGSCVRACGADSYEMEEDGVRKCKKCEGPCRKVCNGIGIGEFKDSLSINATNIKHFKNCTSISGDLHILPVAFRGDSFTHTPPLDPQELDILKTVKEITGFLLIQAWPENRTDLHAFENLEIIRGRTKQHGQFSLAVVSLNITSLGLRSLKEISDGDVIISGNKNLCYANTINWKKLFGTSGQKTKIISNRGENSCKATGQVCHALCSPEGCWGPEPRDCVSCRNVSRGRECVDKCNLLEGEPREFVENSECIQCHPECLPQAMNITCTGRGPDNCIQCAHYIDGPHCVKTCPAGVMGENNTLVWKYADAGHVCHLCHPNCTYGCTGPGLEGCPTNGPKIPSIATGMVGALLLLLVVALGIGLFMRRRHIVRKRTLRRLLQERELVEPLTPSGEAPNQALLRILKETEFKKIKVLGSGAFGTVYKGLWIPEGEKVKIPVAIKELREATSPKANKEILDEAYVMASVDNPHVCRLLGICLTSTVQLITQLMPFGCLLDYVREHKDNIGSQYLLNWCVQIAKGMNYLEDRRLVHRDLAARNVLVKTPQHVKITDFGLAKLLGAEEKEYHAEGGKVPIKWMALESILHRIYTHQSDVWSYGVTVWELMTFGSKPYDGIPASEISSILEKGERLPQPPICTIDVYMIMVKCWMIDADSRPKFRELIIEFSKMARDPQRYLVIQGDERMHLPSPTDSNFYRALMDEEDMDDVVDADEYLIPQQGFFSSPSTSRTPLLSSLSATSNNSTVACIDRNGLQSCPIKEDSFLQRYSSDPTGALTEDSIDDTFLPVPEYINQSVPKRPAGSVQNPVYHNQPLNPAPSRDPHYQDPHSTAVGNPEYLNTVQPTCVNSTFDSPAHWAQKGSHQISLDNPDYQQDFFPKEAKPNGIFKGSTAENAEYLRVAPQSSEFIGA
Method: as §2

VEGFR2 = target: T4, VEGFR2 (Homo sapiens, UniProt P35968); test: VEGFR2 kinase assay kit, Kinase-Glo MAX luminescence; format: biochemical; conditions: for inhibition at 0.01 µM / inhibition at 0.1 µM / inhibition at 1 µM / inhibition at 10 µM: one experimental data, read-out: % Inhibition VEGFR-2; for IC50: mean ± SD of triplicate
T4 construct: purchased #40325
T4 sequence (P35968 20-1356): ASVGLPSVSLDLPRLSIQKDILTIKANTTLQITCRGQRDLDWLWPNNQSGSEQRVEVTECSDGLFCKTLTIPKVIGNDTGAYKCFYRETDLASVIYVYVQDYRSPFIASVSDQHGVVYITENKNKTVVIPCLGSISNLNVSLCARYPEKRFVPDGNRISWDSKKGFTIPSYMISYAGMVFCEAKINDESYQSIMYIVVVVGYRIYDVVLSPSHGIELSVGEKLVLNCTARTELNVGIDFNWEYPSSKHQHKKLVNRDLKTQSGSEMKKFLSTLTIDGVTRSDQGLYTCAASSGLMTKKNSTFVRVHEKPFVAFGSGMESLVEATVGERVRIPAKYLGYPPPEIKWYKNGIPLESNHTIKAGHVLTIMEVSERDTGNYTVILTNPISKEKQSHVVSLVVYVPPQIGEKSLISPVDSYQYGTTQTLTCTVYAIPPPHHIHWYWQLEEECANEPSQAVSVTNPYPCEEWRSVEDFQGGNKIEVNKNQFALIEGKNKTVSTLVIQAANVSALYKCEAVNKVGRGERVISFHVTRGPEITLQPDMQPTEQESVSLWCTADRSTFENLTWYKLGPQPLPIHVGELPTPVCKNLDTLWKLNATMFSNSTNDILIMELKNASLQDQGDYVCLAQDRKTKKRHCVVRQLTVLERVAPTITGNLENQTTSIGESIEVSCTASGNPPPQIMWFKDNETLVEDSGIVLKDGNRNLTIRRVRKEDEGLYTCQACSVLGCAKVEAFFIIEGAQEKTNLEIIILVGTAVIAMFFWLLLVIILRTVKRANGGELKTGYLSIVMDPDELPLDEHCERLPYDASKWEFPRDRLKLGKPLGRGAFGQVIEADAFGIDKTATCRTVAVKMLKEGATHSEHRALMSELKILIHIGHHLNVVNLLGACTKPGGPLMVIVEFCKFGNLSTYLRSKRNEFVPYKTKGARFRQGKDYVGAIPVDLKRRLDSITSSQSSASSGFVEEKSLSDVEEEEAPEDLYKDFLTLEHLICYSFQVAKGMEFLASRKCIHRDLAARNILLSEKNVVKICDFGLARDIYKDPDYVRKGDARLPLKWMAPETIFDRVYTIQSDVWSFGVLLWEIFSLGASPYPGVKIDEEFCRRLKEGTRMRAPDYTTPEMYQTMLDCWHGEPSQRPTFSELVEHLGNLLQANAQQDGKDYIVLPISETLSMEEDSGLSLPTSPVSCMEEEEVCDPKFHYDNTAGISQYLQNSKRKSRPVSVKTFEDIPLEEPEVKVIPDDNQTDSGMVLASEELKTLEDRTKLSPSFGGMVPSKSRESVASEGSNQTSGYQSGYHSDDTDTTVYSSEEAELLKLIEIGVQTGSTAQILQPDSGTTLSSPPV
Method: as §2

CDK2/CyclinA2 [4] = target: T1, CDK2/CyclinA2; test: CDK2 Assay Kit, Kinase-Glo MAX luminescence; format: biochemical; conditions: mean ± SD of triplicate

CCOC(=O)CSc1nc2cc(OC)c(OC)cc2c(=O)n1Cc1ccccc1 [2i, Ethyl 2-((3-benzyl-6,7-dimethoxy-4-oxo-3,4-dihydroquinazolin-2-yl)thio)acetate]
IC50 [1]: 2.7 ± 0.16 µM | IC50 [2]: 1.16 ± 0.1 µM | inhibition at 0.01 µM (CDK2/CyclinA2 [3]): 4.28% | inhibition at 0.1 µM (CDK2/CyclinA2 [3]): 40.5% | inhibition at 1 µM (CDK2/CyclinA2 [3]): 37.8% | inhibition at 10 µM (CDK2/CyclinA2 [3]): 83.7% | inhibition at 0.01 µM (HER2): 20.4% | inhibition at 0.1 µM (HER2): 24.4% | inhibition at 1 µM (HER2): 83.7% | inhibition at 10 µM (HER2): 94.8% | IC50 (HER2): 0.128 ± 0.024 µM | inhibition at 0.01 µM (EGFR): 11.8% | inhibition at 0.1 µM (EGFR): 43.7% | inhibition at 1 µM (EGFR): 39.1% | inhibition at 10 µM (EGFR): 82.3% | IC50 (EGFR): 0.097 ± 0.019 µM | inhibition at 0.01 µM (VEGFR2): 8.13% | inhibition at 0.1 µM (VEGFR2): 31.8% | inhibition at 1 µM (VEGFR2): 20.3% | inhibition at 10 µM (VEGFR2): 77.8% | IC50 (VEGFR2): 2.846 ± 0.014 µM | melting point: 104 to 105 °C | IC50 (CDK2/CyclinA2 [4]): 0.173 ± 0.012 µM

CCOC(=O)CSc1nc2c(C)cc(Cl)cc2c(=O)n1Cc1ccccc1 [2j]
IC50 [1]: 3.79 ± 0.96 µM | IC50 [2]: 2.68 ± 0.09 µM | inhibition at 0.01 µM (CDK2/CyclinA2 [3]): 4.28% | inhibition at 0.1 µM (CDK2/CyclinA2 [3]): 40.5% | inhibition at 1 µM (CDK2/CyclinA2 [3]): 37.8% | inhibition at 10 µM (CDK2/CyclinA2 [3]): 83.7% | inhibition at 0.01 µM (HER2): 12.3% | inhibition at 0.1 µM (HER2): 47% | inhibition at 1 µM (HER2): 82.4% | inhibition at 10 µM (HER2): 93.5% | IC50 (HER2): 0.343 ± 0.015 µM | inhibition at 0.01 µM (EGFR): 22.2% | inhibition at 0.1 µM (EGFR): 49.9% | inhibition at 1 µM (EGFR): 84.3% | inhibition at 10 µM (EGFR): 90.2% | IC50 (EGFR): 0.813 ± 0.022 µM | inhibition at 0.01 µM (VEGFR2): 0.324% | inhibition at 0.1 µM (VEGFR2): 20.3% | inhibition at 1 µM (VEGFR2): 38.9% | inhibition at 10 µM (VEGFR2): 33.9% | IC50 (VEGFR2): 0.247 ± 0.015 µM | melting point: 132 to 134 °C | IC50 (CDK2/CyclinA2 [4]): 0.862 ± 0.016 µM

NNC(=O)CSc1nc2ccc(Cl)cc2c(=O)n1Cc1ccccc1 [3f, 2-((3-Benzyl-6-chloro-4-oxo-3,4-dihydroquinazolin-2-yl)thio)acetohydrazide]
IC50 [1]: 0.34 ± 0.11 µM | IC50 [2]: 1.54 ± 0.6 µM | inhibition at 0.01 µM (CDK2/CyclinA2 [3]): 2.23% | inhibition at 0.1 µM (CDK2/CyclinA2 [3]): 34.7% | inhibition at 1 µM (CDK2/CyclinA2 [3]): 33.3% | inhibition at 10 µM (CDK2/CyclinA2 [3]): 81% | inhibition at 0.01 µM (HER2): 17.3% | inhibition at 0.1 µM (HER2): 47.8% | inhibition at 1 µM (HER2): 82.2% | inhibition at 10 µM (HER2): 90.2% | IC50 (HER2): 0.132 ± 0.014 µM | inhibition at 0.01 µM (EGFR): 3.31% | inhibition at 0.1 µM (EGFR): 31.3% | inhibition at 1 µM (EGFR): 31.4% | inhibition at 10 µM (EGFR): 84.8% | IC50 (EGFR): 0.44 ± 0.015 µM | inhibition at 0.01 µM (VEGFR2): 3.71% | inhibition at 0.1 µM (VEGFR2): 29.8% | inhibition at 1 µM (VEGFR2): 23.4% | inhibition at 10 µM (VEGFR2): 79.3% | IC50 (VEGFR2): 0.651 ± 0.014 µM | melting point: 151 to 152 °C | IC50 (CDK2/CyclinA2 [4]): 0.42 ± 0.013 µM

NNC(=O)CSc1nc2c(F)cc(F)cc2c(=O)n1Cc1ccccc1 [3h, 2-((3-Benzyl-6,8-difluoro-4-oxo-3,4-dihydroquinazolin-2-yl)thio)acetohydrazide]
IC50 [1]: 0.84 ± 0.05 µM | IC50 [2]: 0.63 ± 0.16 µM | inhibition at 0.01 µM (CDK2/CyclinA2 [3]): 3.74% | inhibition at 0.1 µM (CDK2/CyclinA2 [3]): 19.9% | inhibition at 1 µM (CDK2/CyclinA2 [3]): 70.2% | inhibition at 10 µM (CDK2/CyclinA2 [3]): 82.1% | inhibition at 0.01 µM (HER2): 2.73% | inhibition at 0.1 µM (HER2): 44.4% | inhibition at 1 µM (HER2): 77.3% | inhibition at 10 µM (HER2): 89.8% | IC50 (HER2): 0.248 ± 0.023 µM | inhibition at 0.01 µM (EGFR): 8.4% | inhibition at 0.1 µM (EGFR): 38% | inhibition at 1 µM (EGFR): 29.2% | inhibition at 10 µM (EGFR): 87.2% | IC50 (EGFR): 0.128 ± 0.016 µM | inhibition at 0.01 µM (VEGFR2): 3.17% | inhibition at 0.1 µM (VEGFR2): 19.5% | inhibition at 1 µM (VEGFR2): 33.4% | inhibition at 10 µM (VEGFR2): 33.1% | IC50 (VEGFR2): 1.37 ± 0.026 µM | melting point: 185 to 186 °C | IC50 (CDK2/CyclinA2 [4]): 0.257 ± 0.016 µM

Cc1cc(Cl)cc2c(=O)n(Cc3ccccc3)c(SCC(=O)NN)nc12 [3j]
IC50 [1]: 0.2 ± 0.02 µM | IC50 [2]: 0.22 ± 0.03 µM | inhibition at 0.01 µM (CDK2/CyclinA2 [3]): 8.13% | inhibition at 0.1 µM (CDK2/CyclinA2 [3]): 42.8% | inhibition at 1 µM (CDK2/CyclinA2 [3]): 38.4% | inhibition at 10 µM (CDK2/CyclinA2 [3]): 84% | inhibition at 0.01 µM (HER2): 2.33% | inhibition at 0.1 µM (HER2): 39.5% | inhibition at 1 µM (HER2): 72% | inhibition at 10 µM (HER2): 92.2% | IC50 (HER2): 0.222 ± 0.012 µM | inhibition at 0.01 µM (EGFR): 18.7% | inhibition at 0.1 µM (EGFR): 48.8% | inhibition at 1 µM (EGFR): 81% | inhibition at 10 µM (EGFR): 89.9% | IC50 (EGFR): 0.371 ± 0.014 µM | inhibition at 0.01 µM (VEGFR2): 1.98% | inhibition at 0.1 µM (VEGFR2): 22.3% | inhibition at 1 µM (VEGFR2): 41.1% | inhibition at 10 µM (VEGFR2): 74.4% | IC50 (VEGFR2): 3.085 ± 0.016 µM | melting point: 216 to 220 °C | IC50 (CDK2/CyclinA2 [4]): 0.473 ± 0.033 µM
